Laboratory results taken from PMC3535334 (Nature Communications, 2012).

Target: Nano-lantern (ATP1)
Details: 20 nM protein, 50 mM HEPES pH 7.2, coelenterazine-h 1-10 μM

## Nc1ncnc2c1ncn2[C@@H]1O[C@H](COP(=O)(O)OP(=O)(O)OP(=O)(O)O)[C@@H](O)[C@H]1O [ATP]
  Kd: 300 µM
